From patent publication US8933019B2, “Antiviral cell-penetrating peptides” (priority 2008, dated 2015)
Where two headings read alike, the source gives them in different places. Bridge positions count the residues as written; N and C are the ends. Square brackets hold non-standard residues; d marks the D form. Peptide text beside a SMILES is read from it. S5 = C=CCCC[C@](C)(N)C(=O)O

Columns and labels:
HIV-1 MN = details: read-out: IC50 (μM ± SD), HIV-1 MN; laboratory strain, subtype B, MT-2, coreceptor X4
Procedure: (§1) The inhibitory activity of NYAD-201, and related stapled peptides on infection by laboratory-adapted HIV-1 strains was determined as previously described (Jiang et al. J Exp. Med 174:1557-1563, 1991) with minor modifications. Azidothymidine (AZT) was used as a positive control in the infectivity assays. In brief, 1×10^4 MT-2 cells were infected with HIV-1 at 100 TCID50 (50% tissue culture infective dose) (0.01 MOI [multiplicity of infection]) in 200 μl RPMI 1640 medium containing 10% FBS in the presence or absence of peptides at graded concentrations overnight. The culture supernatants were then removed and fresh media containing freshly prepared test peptide were added. On the fourth day post-infection, 100 μl of culture supernatants were collected from each well, mixed with equal volume of 5% Triton X-100 and tested for p24 antigen by ELISA.
(§2) In addition, NYAD-201, NYAD-202 and NYAD-203 were also tested using several laboratory-adapted and primary isolates in MT-2 cells and PBMC (peripheral blood mononuclear cells), respectively.

HIV-1 SF2 = details: read-out: IC50 (μM ± SD), HIV-1 SF2; laboratory strain, subtype B, MT-2, coreceptor R5X4
Procedure: as §1, §2

HIV-1 AZT-R = details: read-out: IC50 (μM ± SD), HIV-1 AZT-R; RT-resistant isolate, subtype B, MT-2, coreceptor X4
Procedure: as §1, §2

HIV-1 RF = details: read-out: IC50 (μM ± SD), HIV-1 RF; laboratory strain, subtype B, MT-2, coreceptor X4
Procedure: as §1, §2

HIV-1RF/L-323-12-3 = details: read-out: IC50 (μM ± SD), HIV-1RF/L-323-12-3; PR-resistant isolate, subtype B, MT-2, coreceptor X4
Procedure: as §1, §2

HIV-1 IIIB = system: HIV-1 IIIB
Procedure: as §1, §2

Jurkat cells = test: Cytotoxicity, LDH leakage, Jurkat cells; format: cell-based; details: 30 min, 2 hr and 4 hr of exposure
Procedure: Cytotoxicity was also evaluated in Jurkat cells using a Promega LDH leakage detection kit. Jurkat cells were plated at 10^4 cells/well in a volume of 200 μl. The test was performed after 30 min, 2 hr and 4 hr of exposure to the NYAD-201, NYAD-202 and NYAD-203 compounds.

HIV-1 93BR020 = test: Inhibition of primary HIV-1 isolate, p24 ELISA, PBMC; format: cell-based; details: subtype F, coreceptor R5X4, read-out: IC50 (μM ± SD), HIV-1 93BR020
Procedure: (§3) The inhibitory activity of peptides on infection by primary HIV-1 isolates was determined as previously described (Jiang et al., Antimicrob. Agents Chemother. 48:4349-4359, 2004). Peripheral blood mononuclear cells (PBMCs) were isolated from the blood of healthy donors at the New York Blood Center by standard density gradient centrifugation using Histopaque-1077 (Sigma-Aldrich). The cells were cultured at 37° C. for 2 hr. Nonadherent cells were collected and resuspended at 5×10^6 cells/ml RPMI-1640 medium containing 10% FBS, 5 μg/ml PHA, and 100 U/ml IL-2 (Sigma-Aldrich), followed by incubation at 37° C. for 3 days. The PHA-stimulated cells (5×10^4 cells/well) were infected with primary HIV-1 isolates at 500 TCID50 (0.01 MOI) in the absence or presence of peptide inhibitor at graded concentrations. Culture media were changed every 3 days and replaced with fresh media containing freshly prepared inhibitor. The supernatants were collected 7 days post-infection and tested for p24 antigen by ELISA (FIG. 6). The percent inhibition of p24 production, IC50 and IC90 values were calculated by the GraphPad Prism software (GraphPad Software Inc.).
(§4) NYAD-201, NYAD-202 and NYAD-203 were also tested against a set of primary HIV-1 isolates in PBMC representing mostly group M and one from group O with diverse coreceptor usage. […] The inhibitory activities of the peptides against this diverse range of primary isolates were similar, indicating its effectiveness against a wide range of HIV-1 isolates.

HIV-1 BCF02 = test: as above; format: cell-based; details: (Group 0), coreceptor R5, read-out: IC50 (μM ± SD), HIV-1 BCF02
Procedure: as §3, §4

HIV-1 CMU02 = test: as above; format: cell-based; details: subtype EA, coreceptor X4, read-out: IC50 (μM ± SD), HIV-1 CMU02
Procedure: as §3, §4

HIV-1 92UG029 = test: as above; format: cell-based; details: subtype A, coreceptor X4, read-out: IC50 (μM ± SD), HIV-1 92UG029
Procedure: as §3, §4

HIV-1 93IN101 = test: as above; format: cell-based; details: subtype C, coreceptor R5, read-out: IC50 (μM ± SD), HIV-1 93IN101
Procedure: as §3, §4

HIV-1 RU570 = test: as above; format: cell-based; details: subtype G, coreceptor R5, read-out: IC50 (μM ± SD), HIV-1 RU570
Procedure: as §3, §4

HIV-1 92US657 = test: as above; format: cell-based; details: subtype B, coreceptor R5, read-out: IC50 (μM ± SD), HIV-1 92US657
Procedure: as §3, §4

HIV-1 98CN009 = test: as above; format: cell-based; details: subtype C, coreceptor R5, read-out: IC50 (μM ± SD), HIV-1 98CN009
Procedure: as §3, §4

HIV-1 93RW024 = test: as above; format: cell-based; details: subtype A, coreceptor R5X4, read-out: IC50 (μM ± SD), HIV-1 93RW024
Procedure: as §3, §4

**Q.** Which IC50 (HIV-1 MN) does the source give for `CSCC[C@@H]1NC(=O)[C@H](Cc2c[nH]c3ccccc23)NC(=O)[C@@](C)(NC(=O)[C@H](CCCCN)NC(=O)[C@@H](NC(=O)[C@H](CCC(=O)O)NC(=O)[C@H](CCC(N)=O)NC(=O)[C@H](C)N)C(C)C)CCCC=CCCC[C@@](C)(C(=O)N[C@H](C(=O)N[C@@H](CC(C)C)C(=O)N[C@@H](CC(C)C)C(=O)N[C@H](C(=O)N[C@@H](C)C(N)=O)C(C)C)[C@@H](C)O)NC(=O)[C@H]([C@@H](C)O)NC1=O` [NYAD-201, AQEVKXWMTXTLLVA] (H-AQEVK[S5]WMT[S5]TLLVA-NH2; staple 6-10) here?
**A.** 3.03 ± 0.61 µM

**Q.** What about the IC50 (HIV-1 SF2) of the same compound?
**A.** 5.06 ± 1.37 µM

**Q.** What about the IC50 (HIV-1 AZT-R) of the same compound?
**A.** 8 ± 1.27 µM

**Q.** And the IC50 (HIV-1 RF)?
**A.** 2.84 ± 0.63 µM

**Q.** And the IC50 (HIV-1RF/L-323-12-3)?
**A.** 5.6 ± 0.5 µM

**Q.** What about the IC50 (HIV-1 IIIB; read-out: IC50 (μM ± SD), HIV-1 IIIB, laboratory strain, subtype B, MT-2, coreceptor X4) of the same compound?
**A.** 4.29 ± 0.62 µM

**Q.** What about the IC50 (HIV-1 IIIB; read-out: IC50 (μM) ± SD, antiviral activity against HIV-1 IIIB, MT-2 cells, p24 production, fourth day post-infection) of the same compound?
**A.** 4.29 ± 0.62 µM

**Q.** And the “Cytotoxicity in Jurkat cells (LDH leakage)” value (Jurkat cells)?
**A.** did not demonstrate toxicity

**Q.** What about the IC50 (HIV-1 93BR020) of the same compound?
**A.** 2.78 ± 0.57 µM

**Q.** What about the IC50 (HIV-1 BCF02) of the same compound?
**A.** 15.8 ± 3.43 µM

**Q.** What about the IC50 (HIV-1 CMU02) of the same compound?
**A.** 7.36 ± 0.69 µM

**Q.** And the IC50 (HIV-1 92UG029)?
**A.** 7.88 ± 1.01 µM

**Q.** And the IC50 (HIV-1 93IN101)?
**A.** 1.58 ± 0.57 µM

**Q.** And the IC50 (HIV-1 RU570)?
**A.** 7.48 ± 1.21 µM

**Q.** And the IC50 (HIV-1 92US657)?
**A.** 6.72 ± 0.98 µM

**Q.** And the IC50 (HIV-1 98CN009)?
**A.** 5.31 ± 0.83 µM

**Q.** What about the IC50 (HIV-1 93RW024) of the same compound?
**A.** 9.88 ± 0.3 µM
